Data from patent US20210077567A1, “Targeted Angiotensin 1-7 Peptide Conjugates and Formation and Use Thereof” (IDAHO STATE UNIVERSITY, priority 2019, published 2021).
Marks after values point to notes of the source that are not given here.

Experiments:
[1] = test system: FUUR1, MoJo, SYO1 and HSSY1 cancer cell lines; experiment: MTT viability/proliferation assay on cancer cell lines (Example 2); type: cell-based; details: all cell lines tested (FUUR1, MoJo, SYO1, HSSY1); multiple concentrations; FIG. 11
Source text: (§1) The viability of several different cancer cell lines including FUUR1, MoJo, SYO1, and the sarcoma cell line HSSY1 using the MTT assay across multiple concentrations and time points and compared with native Ang 1-7 as positive control and Ang II as negative control. The impact of Mas receptor activation by Ang peptide conjugate on gene expression of different components of the RAS, such as ACE1, ACE2, AT1R. Mas receptor was also studied using quantitative PCR using the different cancerous cell lines.

[2] = test system: adjuvant-induced arthritis; experiment: Adjuvant-induced arthritis rat model (body weight, paw and joint diameters, plasma NO); type: in vivo, male Sprague Dawley rats; details: for inflammation and swelling of paws and joints (in words): preventive and treatment groups; for Mean body weight (SD); body weight gain (%) compared with day 1 / Mean body weight (SD); body weight gain (%) after 7 days of dosing: inflamed animals
Procedure: (§2) The Ang peptide conjugate described in Example 1 was examined for anti-inflammatory effect on adjuvant-induced arthritis in a rat animal model. On day one, for induction of adjuvant arthritis, male Sprague Dawley rats were injected at the tail base with 0.2 mL of 50 mg/mL Mycobacterium butyricum. Arthritic animals were divided into 4 groups and treated with saline, Ang II, Ang 1-7 or Ang peptide conjugate. A group of healthy rats received vehicle as control group. Preventive and treatment groups subcutaneously received 200 μg/kg equitant dose daily from day one for 3 weeks or after emergence of arthritis for 1 week, respectively. Animals were monitored daily for their body weight, paw and joint diameters. Animals were then euthanized, plasma/tissues were harvested and analyzed for plasma nitric oxide (NO), and the RAS components.

[3] = test system: synovial sarcoma cell lines SYO1 and MoJo, renal carcinoma cell line FUUR1; experiment: In vitro cell viability / anti-proliferative activity on cancer cell lines (Example 1); type: cell-based; details: various concentrations, FIG. 6-8
Procedure: Upon confirmation of final chemical structure of the active conjugates, the anti-proliferative activity was tested using different cancer cell lines, including synovial sarcoma cell lines SYO1 and MoJo, and the renal carcinoma cell line FUUR1. Results comparing the percent viability of the tested cell lines upon incubation with AngII, Ang1-7, or the Ang peptide conjugate are provided in FIG. 6 (SYO1), FIG. 7 (MoJo) and FIG. 8 (FUUR1). The cell lines were incubated with concentrations of the tested materials at various concentrations, as shown.

[4] = Pharmacokinetic study, plasma half-life; type: in vivo, rats
Procedure: (§3) Pharmacokinetic studies were conducted using rats for calculation of biological half-life and other pharmacokinetic parameters of the conjugates in comparison with native peptides. The tissue distribution of conjugates was conducted on main organs, such as bone (major target), heart, liver, kidney, lung, etc.

[5] = Tissue distribution of radiolabeled peptides; type: in vivo; details: rats, i.v. or s.c.; FIG. 9
Procedure: as §3

[6] = test system: mRNA of RAS components (ACE, ACE2, AT1R, Mas receptor) in cancer cell line HSSY1; experiment: Quantitative PCR of RAS component gene expression; type: cell-based; details: FIG. 12
Source text: as §1

[7] = test system: osteosarcoma tumors; experiment: Osteosarcoma tumor-bearing mouse model, tumor size; type: in vivo, mice; details: s.c. twice daily, equivalent dose of Ang 1-7 of 400 μg/kg, three weeks; FIG. 13
Procedure: The Ang peptide conjugate described in Example 1 was examined for inhibition of the RAS in an advanced form of osteosarcoma. For the in vivo study, a group of mice bearing osteosarcoma tumors was divided into three different groups and subcutaneously dosed twice daily with vehicle (PEG 400: normal Saline, 3:2), Ang 1-7, or Ang peptide conjugate (equivalent dose of Ang 1-7 of 400 μg/kg) for three weeks. The tumor size was measured three times a week. Tumor tissues were harvested and kept in appropriate medium in −80° C. for further analysis of different cancer biomarkers.

[8] = test system: cardiac ACE2, ACE and Mas receptor expression; experiment: Cardiac RAS component expression in adjuvant-induced arthritis rats; type: in vivo; details: for cardiac ACE2/ACE ratio: preventive treatment, FIG. 16, 17; for cardiac Mas receptor expression: treatment after establishment of inflammation, FIG. 18, 19
Procedure: as §2, with “On” for “The Ang peptide conjugate described in Example 1 was examined for anti-inflammatory effect on adjuvant-induced arthritis in a rat animal model. On”

[9] = Stability of the conjugate in solution by HPLC-UV; type: physicochemical
Procedure: At 1, 3, 7, 10, 15, 30 days; 100 μL of the solutions were sampled and after adding stable Ang II as internal standard samples analyzed by HPLC-UV to monitor the stability of the conjugate over time. Table 3, below, provides the percent of the Ang peptide conjugate remaining in each sample after storage for 4 weeks.

[10] = preventive arm, compared with day 1
[11] = treatment arm, after 7 days of dosing

## Angiotensin II (DRVYIHPF; Angiotensin-2; UniProt P01019 25-32, looked up) [Ang II, native Angiotensin II peptide, pro-inflammatory agent, negative control]
[1]
  effect on cell proliferation: remarkable proliferative effect
[2]
  inflammation and swelling of paws and joints (in words): made the situation worse
[2]; [10]
  Difference vs. Inf- Vehicle in body weight gain (%): 4.32%
[2]; preventive arm
  Mean body weight (SD); body weight gain (%) compared with day 1: 13.2 (3.1) %

## Ang peptide conjugate: Ang 1-7 peptide bonded at N-terminus to 27-mer mono-disperse PEG(maleimide)2 spacer conjugated with a thiol-bisphosphonate
[3]
  cell viability compared with native peptides: superior activity
[4]; after intravenous administration
  increase in plasma half-life as compared to the native peptide: 10 fold
[4]; after subcutaneous injection
  increase in half-life as compared to the native peptide: 15 fold
[4]; rats, FIG. 10
  half-life compared with native peptides: longer half-life
[5]
  tissue distribution compared with native peptides: higher affinity to thyroid and bone
[1]
  effect on cell proliferation: anti-proliferative effect was more pronounced
[6]
  ACE2 gene expression: significantly higher
  ACE gene expression: enhanced to some level
  AT1R gene expression: enhanced to some level
  Mas receptor gene expression: significantly higher
[7]
  tumor growth inhibition: potently inhibited tumor growth after 3-4 days
[2]
  inflammation and swelling of paws and joints (in words): reduced the inflammation and swelling to a comparable level with the control group
[2]; [10]
  Difference vs. Inf- Vehicle in body weight gain (%): 6.22%
[2]; preventive arm
  Mean body weight (SD); body weight gain (%) compared with day 1: 15.1 (12.0) %
[2]; preventive arm, 200 μg/kg s.c. daily from day one for 3 weeks, FIG. 14
  plasma level of NO: reduce the elevated plasma level of NO
[2]; [11]
  Difference vs. Inf- Vehicle in body weight gain (%): 3.0%
[2]; treatment arm
  Mean body weight (SD); body weight gain (%) after 7 days of dosing: 7.3 (4.3) * %
[2]; treatment arm, 200 μg/kg s.c. daily for 1 week after emergence of arthritis, FIG. 15
  plasma level of NO: reduce the elevated plasma level of NO
[8]
  cardiac ACE2/ACE ratio: restored this balance
  cardiac Mas receptor expression: restored this balance
[9]; Acetate buffer (pH 5.5), 4 °C, 5 days
  percent of conjugate remaining: 98.4%
[9]; Acetate buffer (pH 5.5), 4 °C, 28 days
  percent of conjugate remaining: 98.0%
[9]; Acetate buffer (pH 5.5), 25 °C, 5 days
  percent of conjugate remaining: 94.3%
[9]; Acetate buffer (pH 5.5), 25 °C, 28 days
  percent of conjugate remaining: 93.3%
[9]; Acetate buffer (pH 5.5), −20 °C, 5 days
  percent of conjugate remaining: 99.8%
[9]; Acetate buffer (pH 5.5), −20 °C, 28 days
  percent of conjugate remaining: 99.5%
[9]; D. D. Water (pH 6.5), 4 °C, 5 days
  percent of conjugate remaining: 95.9%
[9]; D. D. Water (pH 6.5), 4 °C, 28 days
  percent of conjugate remaining: 92.4%
[9]; D. D. Water (pH 6.5), 25 °C, 5 days
  percent of conjugate remaining: 90.6%
[9]; D. D. Water (pH 6.5), 25 °C, 28 days
  percent of conjugate remaining: 64.0%
[9]; D. D. Water (pH 6.5), −20 °C, 5 days
  percent of conjugate remaining: 99.5%
[9]; D. D. Water (pH 6.5), −20 °C, 28 days
  percent of conjugate remaining: 99.1%
[9]; Phosphate buffer (pH 7.4), 4 °C, 5 days
  percent of conjugate remaining: 91.9%
[9]; Phosphate buffer (pH 7.4), 4 °C, 28 days
  percent of conjugate remaining: 79.2%
[9]; Phosphate buffer (pH 7.4), 25 °C, 5 days
  percent of conjugate remaining: 72.8%
[9]; Phosphate buffer (pH 7.4), 25 °C, 28 days
  percent of conjugate remaining: 22.6%
[9]; Phosphate buffer (pH 7.4), −20 °C, 5 days
  percent of conjugate remaining: 99.2%
[9]; Phosphate buffer (pH 7.4), −20 °C, 28 days
  percent of conjugate remaining: 98.9%

## Angiotensin 1-7 (DRVYIHP) [Ang 1-7, reference compound]
[1]
  effect on cell proliferation: significant concentration dependent decrease on cell proliferation
[6]
  ACE2 gene expression: did not significantly change
  ACE gene expression: very large effect
  AT1R gene expression: did not significantly change
  Mas receptor gene expression: did not significantly change
[7]
  tumor growth inhibition: milder effect after 10 days
[2]
  inflammation and swelling of paws and joints (in words): reduced the inflammation and swelling to a comparable level with the control group
[2]; [10]
  Difference vs. Inf- Vehicle in body weight gain (%): 4.78%
[2]; preventive arm
  Mean body weight (SD); body weight gain (%) compared with day 1: 13.6 (8.8) %
[2]; [11]
  Difference vs. Inf- Vehicle in body weight gain (%): 5.7%
[2]; treatment arm
  Mean body weight (SD); body weight gain (%) after 7 days of dosing: 10.0 (4.8) * %
[8]
  cardiac ACE2/ACE ratio: restored this balance
  cardiac Mas receptor expression: restored this balance
